This test has as its target T1, Lca-QPAQ (Lca-Z9-QPAQ) (Lampronia capitella, UniProt B6CBS2).
T1 construct: full-length ORF, 353 residues, YEpOLEX in S. cerevisiae ole1
T1 sequence (B6CBS2 1-352): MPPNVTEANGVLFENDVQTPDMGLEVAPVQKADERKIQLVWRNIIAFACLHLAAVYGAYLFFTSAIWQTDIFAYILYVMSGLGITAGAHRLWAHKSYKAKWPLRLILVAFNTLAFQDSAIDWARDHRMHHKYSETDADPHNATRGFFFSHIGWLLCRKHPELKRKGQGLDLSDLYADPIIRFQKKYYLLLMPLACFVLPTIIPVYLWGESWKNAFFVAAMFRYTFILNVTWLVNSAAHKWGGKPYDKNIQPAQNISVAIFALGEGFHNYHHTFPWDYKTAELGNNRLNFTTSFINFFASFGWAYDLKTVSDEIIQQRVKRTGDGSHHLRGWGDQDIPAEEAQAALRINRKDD
The test can be described thus: product GC-MS with DMDS adducts, yeast ole1 complementation. Type of test: cell-based. To be noted: endogenous yeast acyl (as acyl-CoA); 30 °C; product (Z)-9-hexadecenoic acid.

As to `CCCCCCCCCCCCCCCC(=O)O` [palmitic acid], the “product GC-MS with DMDS adducts, yeast ole1 complementation” value was “Lca-QPAQ and Hass-KPSE are encoding Z9-desaturases displaying a substrate preference for palmitic acid”.
